Values of other authors, collected in US8993486B2, “Ultra-high throughput screening methods to detect synergistic drug interactions” (Lankenau Institute for Medical Research Chemical Genomics …, priority 2010, dated 2015).

System: diverse fungal pathogens

Row | Compound | synergy with ketoconazole (KTC) activity (checkerboard assay, diverse fungal pathogens) | fungicidal activity alone (low dosage)
1 | beauvericin | dramatically synergized KTC activity | –
2 | CC(=O)N1CCN(c2ccc(OCC3COC(Cn4ccnc4)(c4ccc(Cl)cc4Cl)O3)cc2)CC1 (centres unmarked) [ketoconazole] | – | little detectable fungicidal activity
